# What was measured:
# BI-2493 [1] = compound: T1, C[C@H]1CNCCN1c1nccc(-c2noc3c2CCC[C@@]32CCCc3sc(N)c(C#N)c32)n1 [BI-2493]; settings: 5 days
# Method: (§1)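 PRISM pooled barcoded cancer cell line viability screen (Broad Institute) with BI-2493 at 8 doses in threefold dilutions from 0.00457 to 10 µmol/L, 5-day treatment; curves fitted per cell line. IC50 is undefined (placeholder) for resistant lines. AUC is capped at 1, and sensitivity is reported as 1 − AUC.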
# BI-2493 [2] = compound: T1, BI-2493; experiment: 1 - AUC of viability dose-response curve (sensitivity) (fraction); higher = more sensitive; settings: 5 days
# Method: as §1
Test System,IC50 of cell viability (BI-2493 [1]) [µM],1 - AUC of viability dose-response curve (BI-2493 [2])
SKM1_HAEMATOPOIETIC_AND_LYMPHOID_TISSUE,0.316,0.446
SKMEL2_SKIN,9.59,0.0065
SKMEL5_SKIN,7.01,0.0596
SKMEL24_SKIN,9.18,0.157
SKMEL28_SKIN,4.05,0.217
SKMEL30_SKIN,9.15,0.0152
SKMES1_LUNG,8.98,0.0245
SKNAS_AUTONOMIC_GANGLIA,4.32,0.086
SKNBE2_AUTONOMIC_GANGLIA,4.48,0.206
SKNDZ_AUTONOMIC_GANGLIA,9.28,0.012
SKNFI_AUTONOMIC_GANGLIA,5.39,0.112
SKNMC_BONE,7.83,0.193
SKNSH_AUTONOMIC_GANGLIA,> 10,0.25
SKN_ENDOMETRIUM,6.7,0.101
SKOV3_OVARY,7.06,0.0812
SKPNDW_BONE,9.05,0.0174
SKUT1_SOFT_TISSUE,4.83,0.207
SMSCTR_SOFT_TISSUE,> 10,0.0341

Test System,IC50 of cell viability (BI-2493 [1]) [µM],1 - AUC of viability dose-response curve (BI-2493 [2])
SNGM_ENDOMETRIUM,7.12,0.0648
SNU1_STOMACH,5.53,0.102
SNU46_UPPER_AERODIGESTIVE_TRACT,5.4,0.192
SNU61_LARGE_INTESTINE,0.465,0.307
SNU81_LARGE_INTESTINE,9.39,0.129
SNU119_OVARY,5.65,0.162
SNU182_LIVER,> 10,0.0527
SNU201_CENTRAL_NERVOUS_SYSTEM,> 10,0.0868
SNU213_PANCREAS,5.63,0.106
SNU216_STOMACH,8.63,0.0735
SNU245_BILIARY_TRACT,0.731,0.381
SNU308_BILIARY_TRACT,8.63,0.0812
SNU398_LIVER,3.55,0.176
SNU407_LARGE_INTESTINE,1.21,0.3
SNU410_PANCREAS,9.47,0.0692
SNU423_LIVER,3.81,0.152
SNU449_LIVER,7.3,0.0578
SNU466_CENTRAL_NERVOUS_SYSTEM,2.75,0.218
